# Results taken from patent US20140179518A1, “Pesticidal Mixtures Comprising Cyanosulfoximine Compounds” (BASF SE, priority 2007, published 2014).
# Like-named read-outs stand apart in the source and are kept apart here.
# Assays:
# Assay type in all cases: cell-based
# Settings in all cases: single active
# Septoria tritici = assay: Activity against leaf blotch on wheat caused by Septoria tritici (Septtr), microtiter plate
# Botrytis cinerea = assay: Activity against the grey mold Botrytis cinerea in the microtiterplate test (Botrci)
# Phytophthora infestans = system: Phytophthora infestans
# Pyricularia oryzae = system: Pyricularia oryzae
# [1] = 4 ppm, 405 nm, 7 days after inoculation
# [2] = 63 ppm, 405 nm, 7 days after inoculation
smiles,measurement,setting,value
"Fc1ccc([C@]2(Cn3cncn3)O[C@H]2c2ccccc2Cl)cc1 (racemic) [Epoxiconazol, (2RS,3SR)-1-[3-(2-chlorophenyl)-2,3-epoxy-2-(4-fluorophenyl)propyl]-1H-1,2,4-triazole]",Observed efficacy,"Septoria tritici; 0.063 ppm, 7 days",68%
same,Observed efficacy,"Botrytis cinerea; 0.063 ppm, 7 days",3%
"CC(C)OC(=O)N[C@H](C(=O)N[C@H](C)c1nc2ccc(F)cc2s1)C(C)C [Benthivalicarb, isopropyl {(S)-1-[(1R)-1-(6-fluorobenzothiazol-2-yl)-ethylcarbamoyl]-2-methylpropyl}carbamate]",Observed efficacy,"Phytophthora infestans; 0.063 ppm, 7 days",65%
N#CN=S1(=O)CCCC1Cc1ccc(Cl)nc1 (centres unmarked) [C.I.5],Observed efficacy,"Septoria tritici; 0.25 ppm, 7 days",0%
same,Observed efficacy,Septoria tritici; [1],2%
same,Observed efficacy,"Phytophthora infestans; 1 ppm, 7 days",0%
same,Observed efficacy,"Botrytis cinerea; 16 ppm, 7 days",0%
same,Observed efficacy,"Pyricularia oryzae; 16 ppm, 7 days",3%
CC(c1ccc(C(F)(F)F)nc1)S(C)(=O)=NC#N (centres unmarked) [C.I.10],Observed efficacy,"Septoria tritici; 1 ppm, 7 days",0%
same,Observed efficacy,Septoria tritici; [1],2%
same,Observed efficacy,"Phytophthora infestans; 1 ppm, 7 days",0%
same,Observed efficacy,"Botrytis cinerea; 4 ppm, 7 days",3%
"CCNC(=O)NC(=O)C(C#N)=NOC [Cymoxanil, 1-(2-cyano-2-methoxyiminoacetyl)-3-ethylurea]",Observed efficacy,"Phytophthora infestans; 0.25 ppm, 405 nm, 7 days after inoculation",32%
same,Observed efficacy,Botrytis cinerea; [2],17%
same,Observed efficacy,Pyricularia oryzae; [2],8%
"N#Cc1sc2c(=O)c3ccccc3c(=O)c=2sc1C#N [Dithianon, 5,10-dioxo-5,10-dihydronaphtho[2,3-b][1,4]dithiin-2,3-dicarbonitrile]",Observed efficacy,"Botrytis cinerea; 0.25 ppm, 7 days",12%
"CO/N=C(/C1=NOCCO1)c1ccccc1Oc1ncnc(Oc2ccccc2Cl)c1F [Fluoxastrobin, (E)-{2-[6-(2-chlorophenoxy)-5-fluoropyrimidin-4-yloxy]phenyl}(5,6-dihydro-1,4,2-dioxazin-3-yl)methanone O-methyloxime]",Observed efficacy,"Septoria tritici; 0.016 ppm, 7 days",15%
"COC=C(C(=O)OC)c1ccccc1COc1cccc(C(F)(F)F)n1 [Picoxystrobin, methyl 3-methoxy-2-[2-(6-trifluoromethylpyridin-2-yloxymethyl)phenyl]acrylate]",Observed efficacy,"Septoria tritici; 0.063 ppm, 7 days",63%
"Fc1ccc(Oc2ccnc3cc(Cl)cc(Cl)c23)cc1 [Quinoxyfen, 5,7-dichloro-4-(4-fluorophenoxy)quinoline]",Observed efficacy,"Pyricularia oryzae; 16 ppm, 7 days",4%
"CC(C)(C)C(O)(CCc1ccc(Cl)cc1)Cn1cncn1 (centres unmarked) [Tebuconazol, 1-(4-chlorophenyl)-4,4-dimethyl-3-[1,2,4]triazol-1-ylmethylpentan-3-ol]",Observed efficacy,"Septoria tritici; 0.25 ppm, 7 days",67%
